# Counter-ions that a name gives are not always drawn. Like-named read-outs stand apart in the source and are kept apart here.
# Tests used:
# Assay type in all cases: biochemical
# [1] = target: T1, recombinant PRL-3 (Homo sapiens, UniProt O75365); assay: In vitro phosphatase assay (DiFMUP hydrolysis), PRL-3; note: test concentration or dose not given here
# T1 construct: 6xHis (N, cleaved yes); made in house; host or cells: E. coli One Shot BL21 Star
# [2] = target: T2, recombinant PRL-2 (Homo sapiens, UniProt Q12974); assay: In vitro phosphatase assay (DiFMUP hydrolysis), PRL-2;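 note: PRL-2 activity read as DiFMUP hydrolysis after 20 min at room temperature with drug, enzyme first pre-reduced at 4 °C for 20 min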
# T2 construct: 6xHis (N, cleaved yes); made in house; host or cells: E. coli One Shot BL21 Star
# T2 sequence (Q12974 1-167): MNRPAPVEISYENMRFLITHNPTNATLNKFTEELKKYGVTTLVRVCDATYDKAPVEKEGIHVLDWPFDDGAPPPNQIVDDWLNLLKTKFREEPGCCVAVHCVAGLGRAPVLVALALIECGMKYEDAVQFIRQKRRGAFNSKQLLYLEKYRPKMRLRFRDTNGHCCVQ
# [3] = target: T3, recombinant PRL-1 (Homo sapiens, UniProt Q93096); assay: In vitro phosphatase assay (DiFMUP hydrolysis), PRL-1; note: test concentration or dose not given here
# T3 construct: 6xHis (N, cleaved yes); made in house; host or cells: E. coli One Shot BL21 Star
# T3 sequence (Q93096 1-173): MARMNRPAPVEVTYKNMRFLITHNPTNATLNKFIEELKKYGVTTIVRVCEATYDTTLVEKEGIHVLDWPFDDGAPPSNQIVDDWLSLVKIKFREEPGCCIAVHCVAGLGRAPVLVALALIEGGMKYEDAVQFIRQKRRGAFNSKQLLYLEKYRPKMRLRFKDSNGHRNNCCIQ
# [4] = FDA-approved drug screen, activity compared to DMSO
# [5] = FDA-approved drug screen, compared to DMSO
# T1 sequence (O75365 whole entry): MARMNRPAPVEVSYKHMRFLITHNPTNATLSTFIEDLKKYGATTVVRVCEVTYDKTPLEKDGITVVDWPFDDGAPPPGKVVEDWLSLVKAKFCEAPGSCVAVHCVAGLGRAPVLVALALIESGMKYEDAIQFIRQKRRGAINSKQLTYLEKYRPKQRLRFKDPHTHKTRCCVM
Compound,"% Phosphatase Activity (compared to DMSO) PRL-3 [1, 5] [%]","% Phosphatase Activity (compared to DMSO) PRL-2 [2, 5] [%]","% Phosphatase Activity (compared to DMSO) PRL-1 [3, 5] [%]",also measured
NS(=O)(=O)c1cc2c(cc1Cl)NC(C(Cl)Cl)NS2(=O)=O (stereo not drawn) [Trichlormethiazide],–,–,–,"% Phosphatase Activity (compared to DMSO) PRL-3 [1, 4]: 75%; % Phosphatase Activity (compared to DMSO) PRL-2 [2, 4]: 93%; % Phosphatase Activity (compared to DMSO) PRL-1 [3, 4]: 100%"
Clc1ccc2nsnc2c1NC1=NCCN1 [Tizanidine HCl],–,–,–,% Phosphatase Activity (compared to DMSO) PRL-3 [1]: 76%; % Phosphatase Activity (compared to DMSO) PRL-2 [2]: 92%; % Phosphatase Activity (compared to DMSO) PRL-1 [3]: 93%
O=C1CC2(CCCC2)CC(=O)N1CCCCN1CCN(c2ncccn2)CC1 [Buspirone HCl],75,91,89,–
COc1cc2nc(N3CCN(C(=O)C4CCCO4)CC3)nc(N)c2cc1OC (stereo not drawn) [Terazosin],–,–,–,"% Phosphatase Activity (compared to DMSO) PRL-3 [1, 4]: 448%; % Phosphatase Activity (compared to DMSO) PRL-2 [2, 4]: 423%; % Phosphatase Activity (compared to DMSO) PRL-1 [3, 4]: 595%"
C#C[C@]1(O)CC[C@H]2[C@@H]3CCC4=CCCC[C@@H]4[C@H]3C(=C)C[C@@]21CC [Desogestrel],84,109,104,–
C[C@H](CS)C(=O)N1CCC[C@H]1C(=O)O [Captopril],82,99,90,–
Cc1nc(NC(=O)N2CCC[C@H]2C(N)=O)sc1-c1ccnc(C(C)(C)C(F)(F)F)c1 [BYL719],90,96,89,–
C[C@@H]1CN(c2c(F)c(N)c3c(=O)c(C(=O)O)cn(C4CC4)c3c2F)C[C@H](C)N1 [Sparfloxacin],–,–,–,"% Phosphatase Activity (compared to DMSO) PRL-3 [1, 4]: 121%; % Phosphatase Activity (compared to DMSO) PRL-2 [2, 4]: 98%; % Phosphatase Activity (compared to DMSO) PRL-1 [3, 4]: 87%"
Cc1c(C(N)=O)cc([N+](=O)[O-])cc1[N+](=O)[O-] [Dinitolmide],90,117,107,–
CC(=O)Nc1cccc(-n2c(=O)n(C3CC3)c(=O)c3c(Nc4ccc(I)cc4F)n(C)c(=O)c(C)c32)c1 [Trametinib (GSK1120212)],–,–,–,"% Phosphatase Activity (compared to DMSO) PRL-3 [1, 4]: 88%; % Phosphatase Activity (compared to DMSO) PRL-2 [2, 4]: 112%; % Phosphatase Activity (compared to DMSO) PRL-1 [3, 4]: 88%"
CC(C)(C)c1cc(NC(=O)Nc2ccc(-c3cn4c(n3)sc3cc(OCCN5CCOCC5)ccc34)cc2)no1 [Quizartinib (AC220)],97,114,112,–
Cc1cc(C)c2c(c1)[C@@H](N(Cc1cc(C(F)(F)F)cc(C(F)(F)F)c1)c1nnn(C)n1)CCCN2C[C@H]1CC[C@H](C(=O)O)CC1 [Evacetrapib (LY2484595)],84,86,84,–
O=C(Nc1cccc2c(=O)cc(-c3nnn[nH]3)oc12)c1ccc(OCCCCc2ccccc2)cc1 [Pranlukast],54,205,147,–
Nc1nc(CC(=O)Nc2ccc(CCNC[C@H](O)c3ccccc3)cc2)cs1 [Mirabegron],88,113,104,–
CC(O)(CS(=O)(=O)c1ccc(F)cc1)C(=O)Nc1ccc(C#N)c(C(F)(F)F)c1 (stereo not drawn) [Bicalutamide],99,108,118,–
Cc1ccc(NC(=O)C2(c3ccc4c(c3)OC(F)(F)O4)CC2)nc1-c1cccc(C(=O)O)c1 [VX-809 (Lumacaftor)],–,–,–,"% Phosphatase Activity (compared to DMSO) PRL-3 [1, 4]: 90%; % Phosphatase Activity (compared to DMSO) PRL-2 [2, 4]: 96%; % Phosphatase Activity (compared to DMSO) PRL-1 [3, 4]: 112%"
CC(C)C[C@H](NC(=O)[C@H](Cc1ccccc1)NC(=O)c1cnccn1)B(O)O [Bortezomib (PS-341)],93,121,104,–

Compound,"% Phosphatase Activity (compared to DMSO) PRL-3 [1, 5] [%]","% Phosphatase Activity (compared to DMSO) PRL-2 [2, 5] [%]","% Phosphatase Activity (compared to DMSO) PRL-1 [3, 5] [%]",also measured
CO/N=C(\C(=O)N[C@@H]1C(=O)N2C(C(=O)O)=C(COC(C)=O)CS[C@H]12)c1csc(N)n1 [Cefotaxime sodium],91,118,112,–
Cc1c(C(=O)NN2CCCCC2)nn(-c2ccc(Cl)cc2Cl)c1-c1ccc(Cl)cc1 [Rimonabant],98,116,103,–
O=c1[nH]c(=O)n([C@H]2C[C@H](O)[C@@H](CO)O2)cc1F [Floxuridine],70,100,93,–
CC(CCc1ccccc1)NCC(O)c1ccc(O)c(C(N)=O)c1 (stereo not drawn) [Labetalol HCl],110,154,156,–
CC(=O)C1C(=O)C=C(C)OC1=O (stereo not drawn) [Dehydroacetic acid],90,98,99,–
CC(=O)OCC(CCn1cnc2cnc(N)nc21)COC(C)=O [Famciclovir],79,115,107,–
O=C(O)P(=O)(O)O [Foscarnet Sodium],91,109,109,–
CCCCCCOC(=O)N=C(N)c1ccc(NCc2nc3cc(C(=O)N(CCC(=O)OCC)c4ccccn4)ccc3n2C)cc1 [Dabigatran Etexilate],106,112,121,–
C[C@]12CC[C@H](O)CC1=CC[C@@H]1[C@@H]2CC[C@]2(C)C(n3cnc4ccccc43)=CC[C@@H]12 [Galeterone],96,98,90,–
O=NN(CCCl)C(=O)NC1CCCCC1 [Lomustine],94,105,96,–
O=[N+]([O-])O[C@@H]1CO[C@H]2[C@@H]1OC[C@@H]2O [Isosorbide Mononitrate],81,85,91,–
"CCCS(=O)(=O)Nc1ccc(F)c(C(=O)c2c[nH]c3ncc(-c4ccc(Cl)cc4)cc23)c1F [Vemurafenib (PLX4032, RG7204)]",–,–,–,"% Phosphatase Activity (compared to DMSO) PRL-3 [1, 4]: 80%; % Phosphatase Activity (compared to DMSO) PRL-2 [2, 4]: 89%; % Phosphatase Activity (compared to DMSO) PRL-1 [3, 4]: 89%"
NC(CO)(CO)CO [Trometamol],–,–,–,% Phosphatase Activity (compared to DMSO) PRL-3 [1]: 82%; % Phosphatase Activity (compared to DMSO) PRL-2 [2]: 105%; % Phosphatase Activity (compared to DMSO) PRL-1 [3]: 102%
CC(=O)NC1CCSC1=O (stereo not drawn) [Citiolone],93,106,114,–
Cc1cccc([C@H](C)c2cnc[nH]2)c1C [Dexmedetomidine],–,–,–,% Phosphatase Activity (compared to DMSO) PRL-3 [1]: 94%; % Phosphatase Activity (compared to DMSO) PRL-2 [2]: 113%; % Phosphatase Activity (compared to DMSO) PRL-1 [3]: 98%
COc1nc(C)cnc1NS(=O)(=O)c1cccnc1-c1ccc(-c2nnco2)cc1 [Zibotentan (ZD4054)],–,–,–,"% Phosphatase Activity (compared to DMSO) PRL-3 [1, 4]: 94%; % Phosphatase Activity (compared to DMSO) PRL-2 [2, 4]: 97%; % Phosphatase Activity (compared to DMSO) PRL-1 [3, 4]: 99%"
CCCC(=O)OCOC(=O)C1=C(C)NC(C)=C(C(=O)OC)C1c1cccc(Cl)c1Cl (stereo not drawn) [Clevidipine Butyrate],262,437,473,–

# Reference: publication PMC8119466, “A screen of FDA-approved drugs identifies inhibitors of protein tyrosine phosphatase 4A3 (PTP4A3 or PRL-3)” (Scientific Reports, 2021)
